The values below are quoted from earlier work in US20090068143A1, “ORALLY EFFECTIVE C[…]” (priority 2005, published 2009).

The conditions of series [1]: oral administration, on an average; cited from earlier work.
The conditions of series [2]: in vivo; cited from earlier work.

Regarding `CCCCCc1cc(O)c2c(c1)OC(C)(C)[C@@H]1CCC(C)=C[C@@H]21` [Δ^9-THC, Δ^9-tetrahydrocannabinol], the absolute bioavailability in series [1] is listed as 13%.

B1: IFN-β-1b: beta interferon product to which patients develop NAbs (protein, UniProt P01574 22-187, looked up, variant C17S)
Interferon beta: MSYNLLGFLQRSSNFQSQKLLWQLNGRLEYCLKDRMNFDIPEEIKQLQQFQKEDAALTIYEMLQNIFAIFRQDSSSTGWNETIVENLLANVYHQINHLKTVLEEKLEKEDFTRGKLMSSLHLKRYYGRILHYLKAKEYSHCAWTIVRVEILRNFYFINRLTGYLRN
On to B1, for which, in series [2], the “patients developing neutralizing antibodies (NAbs)” value is reported as “Twenty-eight to forty-seven”.
